Laboratory results as given in patent US12643871B2, “Aryl formamide compound containing chiral sulfur oxide or salt thereof, preparation method, herbicidal composition and use thereof” (Qingdao Kingagroot Chemical Compound Co., Ltd., priority 2019, dated 2026).

What was measured:
Assay in all cases: Weeding effect in post-emergence stage
Type in all cases: in vivo
Conditions in all cases: 250 g/ha; 2 leaf stage; 15 days after application; fresh weight control rate
[1] = test system: Digitaria sanguinalis
Method in brief: (§1)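 Pot-grown weeds sprayed post-emergence at the 2-leaf stage, 2 weeks after sowing, with compound in acetone/Tween 80 plus 1.5 L/ha methyl oleate concentrate at 500–15 g/ha. Fresh-weight growth control scored after 15 days in greenhouse, mean of three replicates, graded levels 0–5 (5: >85%, 0: <5%).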

[2] = test system: Echinochloa crusgali
Method in brief: as §1

[3] = test system: Amaranthus retroflexus
Method in brief: as §1

CCOCCn1nnnc1NC(=O)c1ccc(S(C)(=O)=O)c([S@+]([O-])CC)c1C [Compound 612]
weeding effect in post-emergence stage, activity level (growth control rate), Digitaria sanguinalis [1]: 5 (Level 5: growth control rate is above 85%) | weeding effect in post-emergence stage, activity level (growth control rate), Echinochloa crusgali [2]: 5 (Level 5: growth control rate is above 85%) | weeding effect in post-emergence stage, activity level (growth control rate), Amaranthus retroflexus [3]: 5 (Level 5: growth control rate is above 85%)

Cc1nnc(NC(=O)c2ccc(S(C)(=O)=O)c([S@+]([O-])CCC#N)c2C)o1 [Compound 610]
weeding effect in post-emergence stage, activity level (growth control rate), Digitaria sanguinalis [1]: 5 (Level 5: growth control rate is above 85%) | weeding effect in post-emergence stage, activity level (growth control rate), Echinochloa crusgali [2]: 5 (Level 5: growth control rate is above 85%) | weeding effect in post-emergence stage, activity level (growth control rate), Amaranthus retroflexus [3]: 5 (Level 5: growth control rate is above 85%)

Cc1c(C(=O)Nc2nnnn2C)ccc(S(C)(=O)=O)c1[S@+]([O-])CCC(C)(C)C [Compound 603]
weeding effect in post-emergence stage, activity level (growth control rate), Digitaria sanguinalis [1]: 5 (Level 5: growth control rate is above 85%) | weeding effect in post-emergence stage, activity level (growth control rate), Echinochloa crusgali [2]: 5 (Level 5: growth control rate is above 85%) | weeding effect in post-emergence stage, activity level (growth control rate), Amaranthus retroflexus [3]: 5 (Level 5: growth control rate is above 85%)

Cc1c(C(=O)Nc2nnnn2C)ccc(S(C)(=O)=O)c1[S+]([O-])COC(=O)C(C)(C)C (stereo not drawn) [Compound 605]
weeding effect in post-emergence stage, activity level (growth control rate), Digitaria sanguinalis [1]: 5 (Level 5: growth control rate is above 85%) | weeding effect in post-emergence stage, activity level (growth control rate), Echinochloa crusgali [2]: 5 (Level 5: growth control rate is above 85%) | weeding effect in post-emergence stage, activity level (growth control rate), Amaranthus retroflexus [3]: 5 (Level 5: growth control rate is above 85%)

CSC(=O)C[S@@+]([O-])c1c(C(F)(F)F)ccc(C(=O)Nc2nnc(C)o2)c1F [Compound 597]
weeding effect in post-emergence stage, activity level (growth control rate), Digitaria sanguinalis [1]: 5 (Level 5: growth control rate is above 85%) | weeding effect in post-emergence stage, activity level (growth control rate), Echinochloa crusgali [2]: 5 (Level 5: growth control rate is above 85%) | weeding effect in post-emergence stage, activity level (growth control rate), Amaranthus retroflexus [3]: 5 (Level 5: growth control rate is above 85%)

CCC[S@@+]([O-])c1c(C(F)F)ccc(C(=O)Nc2nnnn2C)c1SC [Compound 867]
weeding effect in post-emergence stage, activity level (growth control rate), Digitaria sanguinalis [1]: 5 (Level 5: growth control rate is above 85%) | weeding effect in post-emergence stage, activity level (growth control rate), Echinochloa crusgali [2]: 5 (Level 5: growth control rate is above 85%) | weeding effect in post-emergence stage, activity level (growth control rate), Amaranthus retroflexus [3]: 5 (Level 5: growth control rate is above 85%)

CC[S@@+]([O-])c1c(S(C)(=O)=O)ccc(C(=O)Nc2nnnn2CCOC)c1C [Compound 622]
weeding effect in post-emergence stage, activity level (growth control rate), Digitaria sanguinalis [1]: 5 (Level 5: growth control rate is above 85%) | weeding effect in post-emergence stage, activity level (growth control rate), Echinochloa crusgali [2]: 5 (Level 5: growth control rate is above 85%) | weeding effect in post-emergence stage, activity level (growth control rate), Amaranthus retroflexus [3]: 5 (Level 5: growth control rate is above 85%)

Cc1c(C(=O)Nc2nnnn2C)ccc(S(C)(=O)=O)c1[S@+]([O-])CC(=O)N(C)C [Compound 606]
weeding effect in post-emergence stage, activity level (growth control rate), Digitaria sanguinalis [1]: 5 (Level 5: growth control rate is above 85%) | weeding effect in post-emergence stage, activity level (growth control rate), Echinochloa crusgali [2]: 5 (Level 5: growth control rate is above 85%) | weeding effect in post-emergence stage, activity level (growth control rate), Amaranthus retroflexus [3]: 5 (Level 5: growth control rate is above 85%)

Cc1c(C(=O)Nc2nnnn2C)ccc(S(C)(=O)=O)c1[S@+]([O-])CCC#N [Compound 608]
weeding effect in post-emergence stage, activity level (growth control rate), Digitaria sanguinalis [1]: 5 (Level 5: growth control rate is above 85%) | weeding effect in post-emergence stage, activity level (growth control rate), Echinochloa crusgali [2]: 5 (Level 5: growth control rate is above 85%) | weeding effect in post-emergence stage, activity level (growth control rate), Amaranthus retroflexus [3]: 5 (Level 5: growth control rate is above 85%)

Cc1nnc(NC(=O)c2ccc(S(C)(=O)=O)c([S@+]([O-])CC(=O)N(C)C)c2C)o1 [Compound 604]
weeding effect in post-emergence stage, activity level (growth control rate), Digitaria sanguinalis [1]: 5 (Level 5: growth control rate is above 85%) | weeding effect in post-emergence stage, activity level (growth control rate), Echinochloa crusgali [2]: 5 (Level 5: growth control rate is above 85%) | weeding effect in post-emergence stage, activity level (growth control rate), Amaranthus retroflexus [3]: 5 (Level 5: growth control rate is above 85%)
